In patent US5023254A, “Aminoalkylindoles, their production, and pharmaceutical preparations based thereon” (Schering Aktiengesellschaft, priority 1988, dated 1991):
Several values for one entry are separate records, joined by “and”; a condition that tells them apart may be missing. Identical values can stand only once.

Legend:
mouse uterus [1] = test: Uterotrophic test on infantile mouse (estrogen activity); assay type: in vivo; design: unit not given here
From the text: (§1) This test is fully described in Cancer Treatment Reviews 1984, 11, 147, and J.Med.Chem., 1984, 27, 1439.

mouse uterus [2] = test: Antiuterotrophic test on infantile mouse (anti-estrogen activity); assay type: in vivo; design: Antiuterotrophic Test Rel. uterus wgt / Antiuterotrophic Test Action (rel. uterus wgt): unit not given here; details: for inhibition in vivo at 0.125 mg: Mus musculus; for inhibition in vivo at 0.125 mg / inhibition in vivo at 0.005 mg / inhibition in vivo at 0.025 mg / inhibition in vivo at 0.625 mg: read-out: Antiuterotrophic Test Inhib. (%); for Antiuterotrophic Test Rel. uterus wgt / inhibition in vivo at 0.005 mg / inhibition in vivo at 0.025 mg / Antiuterotrophic Test Action (rel. uterus wgt) / inhibition in vivo at 0.625 mg: infantile mouse; for inhibition in vivo at 0.005 mg: dose 5 ug (per animal); for inhibition in vivo at 0.025 mg: dose 25 ug (per animal)
From the text: as §1

estrogen receptor = target: T1, estrogen receptor (Bos taurus, UniProt P49884); test: relative binding affinity (RBA) for the estrogen receptor from calf uterus, displacement of 3H-17β estradiol; details: for affinity for the estrogen receptor (in words): in comparison with estradiol; for RBA (relative binding affinity for the estrogen receptor): calf uterus, relative to 17 beta estradiol = 100
T1 construct: estrogen receptor from calf uterus; from tissue; host or cells: calf uterus
T1 sequence (P49884 1-596): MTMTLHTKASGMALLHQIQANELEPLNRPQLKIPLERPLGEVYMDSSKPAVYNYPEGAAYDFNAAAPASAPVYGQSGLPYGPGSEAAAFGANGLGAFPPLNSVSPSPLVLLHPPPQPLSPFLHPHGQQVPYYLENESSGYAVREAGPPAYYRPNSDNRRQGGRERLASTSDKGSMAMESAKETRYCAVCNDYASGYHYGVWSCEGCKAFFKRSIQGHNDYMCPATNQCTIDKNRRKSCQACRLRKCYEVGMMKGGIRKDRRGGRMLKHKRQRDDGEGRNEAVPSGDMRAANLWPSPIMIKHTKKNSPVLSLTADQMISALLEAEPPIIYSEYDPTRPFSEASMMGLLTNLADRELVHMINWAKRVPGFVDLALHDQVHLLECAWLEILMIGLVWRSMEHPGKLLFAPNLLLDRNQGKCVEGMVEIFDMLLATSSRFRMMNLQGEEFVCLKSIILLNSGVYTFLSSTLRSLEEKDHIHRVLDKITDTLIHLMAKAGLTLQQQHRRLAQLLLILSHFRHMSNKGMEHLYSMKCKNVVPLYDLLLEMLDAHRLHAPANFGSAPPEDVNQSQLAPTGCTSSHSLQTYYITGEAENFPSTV
From the text: *Relative binding affinities for the estrogen receptor from calf uterus,

[3] = test system: human MCF-7 breast cancer cells; test: growth of hormone-dependent human MCF-7 breast cancer cells, cell count; assay type: cell-based; details: Homo sapiens, MCF7, read-out: Cell Count (% T/C); for activity at 10 µM: MCF-7, 1 × 10^-5 M; for activity at 1 µM: MCF-7, 1 × 10^-6 M; for activity at 0.1 µM: MCF-7, 1 × 10^-7 M; for activity at 5 µM: MCF-7, 5 × 10^-6 M; for activity at 0.5 µM: MCF-7, 5 × 10^-7 M
From the text: The test protocol for the research is fully described in Eur.J. Cancer Clin. Oncol.

RBA (relative binding affinity for the estrogen receptor) (estrogen receptor)	Compound	inhibition in vivo at 0.125 mg (mouse uterus [2]) [%]	inhibition in vivo at 0.005 mg (mouse uterus [2]) [%]	inhibition in vivo at 0.025 mg (mouse uterus [2]) [%]	activity at 10 µM [3] [%]	activity at 1 µM [3] [%]	activity at 0.1 µM [3] [%]	Uterotrophic Test Action (rel. uterus wgt) (mouse uterus [1]; dose 5 ug/animal)	Uterotrophic Test Action (rel. uterus wgt) (mouse uterus [1]; dose 25 ug/animal)	Antiuterotrophic Test Action (rel. uterus wgt) (mouse uterus [2]; dose 5 ug/animal)	Antiuterotrophic Test Action (rel. uterus wgt) (mouse uterus [2]; dose 25 ug/animal)	further results
	Cc1c(-c2ccc(O)cc2)n(CCCCCCN)c2ccc(O)cc12 [Compound 2, 5-Hydroxy-2-(4-hydroxyphenyl)-3-methyl-1-[6-amino-hexyl]-indole]	99	68	102								Uterotrophic Test Rel. uterus wgt (mouse uterus [1]; dose 1 ug): 10.9 ± 4.7; Uterotrophic Test Rel. uterus wgt (mouse uterus [1]; dose 5 ug): 12.0 ± 2.2; Uterotrophic Test Rel. uterus wgt (mouse uterus [1]; dose 25 ug): 12.4 ± 2.7; Uterotrophic Test Rel. uterus wgt (mouse uterus [1]; dose 125 ug): 16.9 ± 2.7; Antiuterotrophic Test Rel. uterus wgt (mouse uterus [2]; dose 5 ug): 30.0 ± 9.1; Antiuterotrophic Test Rel. uterus wgt (mouse uterus [2]; dose 25 ug): 15.1 ± 1.2; Antiuterotrophic Test Rel. uterus wgt (mouse uterus [2]; dose 125 ug): 16.2 ± 2.7; affinity for the estrogen receptor (in words) (estrogen receptor): greatest affinity
1.3	Oc1ccc(-c2cc3cc(O)ccc3n2CCCCCCN2CCCCC2)cc1 [Compound 7, 5-Hydroxy-2-(4-hydroxyphenyl)-1-[6-piperidino-hexyl]-indole]											affinity for the estrogen receptor (in words) (estrogen receptor): least affinity
10	Cc1c(-c2ccc(O)cc2)n(CCCCCCN2CCOCC2)c2ccc(O)cc12 [Compound 10, 5-Hydroxy-2-(4-hydroxyphenyl)-3-methyl-1-[6-morpholino-hexyl]-indole]	102	8	18	36	52	75					Uterotrophic Test Rel. uterus wgt (mouse uterus [1]; dose 1 ug): 21.2 ± 3.9; Uterotrophic Test Rel. uterus wgt (mouse uterus [1]; dose 5 ug): 19.5 ± 6.9; Uterotrophic Test Rel. uterus wgt (mouse uterus [1]; dose 25 ug): 21.8 ± 11.3; Uterotrophic Test Rel. uterus wgt (mouse uterus [1]; dose 125 ug): 17.4 ± 1.7; Antiuterotrophic Test Rel. uterus wgt (mouse uterus [2]; dose 5 ug): 51.2 ± 7.5; Antiuterotrophic Test Rel. uterus wgt (mouse uterus [2]; dose 25 ug): 47.7 ± 8.4; Antiuterotrophic Test Rel. uterus wgt (mouse uterus [2]; dose 125 ug): 18.0 ± 4.8
12	Cc1c(-c2ccc(O)cc2)n(CCCCCC(=O)NCc2ccccc2)c2ccc(O)cc12 [Compound 20, 1-(6-Benzylcarbamoylpentyl)-5-hydroxy-2-(4-hydroxyphenyl)-3-methylindole]			12	26.8 ± 4.2	46.8 ± 4.2	58.3 ± 4.9	16.5 ± 3.6	20.9 ± 6.5	50.7 ± 5.0	46.9 ± 7.7	activity at 5 µM [3]: 36.6 ± 2.5%; activity at 0.5 µM [3]: 47.9 ± 3%; Uterotrophic Test Action (rel. uterus wgt) (mouse uterus [1]; dose 625 ug/animal): 19.9 ± 4.1; Antiuterotrophic Test Action (rel. uterus wgt) (mouse uterus [2]; dose 625 ug/animal): 59.5 ± 12.4; inhibition in vivo at 0.625 mg (mouse uterus [2]; dose 625 ug/animal): -23%
19	Cc1c(-c2ccc(O)cc2)n(CCCCCC(=O)N2CCCCC2)c2ccc(O)cc12 [Compound 17, 5-Hydroxy-2-(4-hydroxyphenyl)-3-methyl-1-(6-piperidinocarbonylpentyl)-indole]	59	6	22	86.5 ± 8.3	96 ± 7.7	89 ± 10.8	17.7 ± 3.2	16.3 ± 3.0	48.7 ± 9.1	42.9 ± 4.7	activity at 5 µM [3]: 99.6 ± 7.6%; activity at 0.5 µM [3]: 95.5 ± 10.2%; Uterotrophic Test Action (rel. uterus wgt) (mouse uterus [1]; dose 1 ug/animal): 23.8 ± 2.8
12	Cc1c(-c2ccc(O)cc2)n(CCCCCCN(C)C)c2ccc(O)cc12 [Compound 4, 5-Hydroxy-2-(4-hydroxyphenyl)-3-methyl-1-[6-dimethyamino-hexyl]-indole]											
14	CCN(CC)CCCCCCn1c(-c2ccc(O)cc2)c(C)c2cc(O)ccc21 [Compound 11]	50	11	8				24.8 ± 11.7	14.7 ± 4.3	51.3 ± 4.9	52.1 ± 8.9	Uterotrophic Test Action (rel. uterus wgt) (mouse uterus [1]; dose 625 ug/animal): 36.4 ± 17.6; Antiuterotrophic Test Action (rel. uterus wgt) (mouse uterus [2]; dose 625 ug/animal): 43.7 ± 7.4; inhibition in vivo at 0.625 mg (mouse uterus [2]; dose 625 ug/animal): 37%
23	Cc1c(-c2ccc(O)cc2)n(CCCCCCN2CCCCC2)c2ccc(O)cc12 [Compound 8, 5-Hydroxy-2-(4-hydroxyphenyl)-3-methyl-1-[6-piperidino-hexyl]-indole]				38	44	48					affinity for the estrogen receptor (in words) (estrogen receptor): greatest affinity
7	Cc1c(-c2ccc(O)cc2)n(CCCCCC(=O)N2CCCC2)c2ccc(O)cc12 [Compound 16, 5-Hydroxy-2-(4-hydroxyphenyl)-3-methyl-1-(6-pyrrolidinocarbonylpentyl)-indole]	53	10	29	42.1 ± 4	47.1 ± 3.7	57.2 ± 4.4	18.2 ± 2.3	16.5 ± 2.4	47.5 ± 10.9	42.0 ± 7.0	activity at 5 µM [3]: 44 ± 3.6%; activity at 0.5 µM [3]: 48.2 ± 5.4%; Uterotrophic Test Action (rel. uterus wgt) (mouse uterus [1]; dose 625 ug/animal): 35.3 ± 10.7; Antiuterotrophic Test Action (rel. uterus wgt) (mouse uterus [2]; dose 625 ug/animal): 40.7 ± 3.9; inhibition in vivo at 0.625 mg (mouse uterus [2]; dose 625 ug/animal): 44%
15	CCN(CC)C(=O)CCCCCn1c(-c2ccc(O)cc2)c(C)c2cc(O)ccc21 [Compound 19, 1-(6-Diethylcarbamoylpentyl)-5-hydroxy-2-(4-hydroxyphenyl)-3-methylindole]	34	13	13	44.9 ± 3.7	61.4 ± 4.4	59.7 ± 6.1	18.4 ± 3.2	17.9 ± 2.0	50.9 ± 8.2	50.9 ± 4.8	activity at 5 µM [3]: 56.2 ± 4.5%; activity at 0.5 µM [3]: 60.1 ± 3.8%; Uterotrophic Test Action (rel. uterus wgt) (mouse uterus [1]; dose 625 ug/animal): 32.7 ± 6.5; Antiuterotrophic Test Action (rel. uterus wgt) (mouse uterus [2]; dose 625 ug/animal): 35.3 ± 6.1; inhibition in vivo at 0.625 mg (mouse uterus [2]; dose 625 ug/animal): 66%
7.6	Cc1c(-c2ccc(O)cc2)n(CCCCCCCCN2CCCC2)c2ccc(O)cc12 [Compound 9, 5-Hydroxy-2-(4-hydroxyphenyl)-3-methyl-1-[8-pyrrolidino-octyl]-indole]											
2.3	Oc1ccc(-c2cc3cc(O)ccc3n2CCCCCCN2CCCC2)cc1 [Compound 5, 5-Hydroxy-2-(4-hydroxyphenyl)-1-[6-pyrrolidino-hexyl]-indole]											
27	CNCCCCCCn1c(-c2ccc(O)cc2)c(C)c2cc(O)ccc21 [Compound 3, 5-Hydroxy-2-(4-hydroxyphenyl)-3-methyl-1-[6-methylamino-hexyl]-indole]	59	49	43								Uterotrophic Test Rel. uterus wgt (mouse uterus [1]; dose 1 ug): 14.2 ± 3.1; Uterotrophic Test Rel. uterus wgt (mouse uterus [1]; dose 5 ug): 22.8 ± 8.6; Uterotrophic Test Rel. uterus wgt (mouse uterus [1]; dose 125 ug): 34.0 ± 6.3; Antiuterotrophic Test Rel. uterus wgt (mouse uterus [2]; dose 5 ug): 38.1 ± 8.2; Antiuterotrophic Test Rel. uterus wgt (mouse uterus [2]; dose 25 ug): 41.0 ± 8.5; Antiuterotrophic Test Rel. uterus wgt (mouse uterus [2]; dose 125 ug): 33.8 ± 2.4; affinity for the estrogen receptor (in words) (estrogen receptor): greatest affinity
	C[C@]12CC[C@@H]3c4ccc(O)cc4CC[C@H]3[C@@H]1CCC2=O [Estrone, reference compound]											Uterotrophic Test Rel. uterus wgt (mouse uterus [1]; estrone 0.4 ug): 45.8 ± 6.2 and 59.8 ± 20.0 and 53.4 ± 3.6 and 43.0 ± 7.2 and 54.2 ± 12.1; Antiuterotrophic Test Rel. uterus wgt (mouse uterus [2]; estrone alone 0.4 ug): 54.2 ± 12.1
